Experimental data taken from publication PMC11785791, “Cryo-EM structure of the calcium-sensing receptor complexed with the kokumi substance γ-glutamyl-valyl-glycine” (Scientific Reports, 2025).
*1 amine or outer side, *2 acyl side, *3 side chain or, on linkers, in order; H or OH if unused. Where a SMILES comes first, the peptide text is derived from it. γGlu = O=C(O)[CH](CCC(=O)[*:2])N[*:1]

Experiments:
[1] = molecular target: T1, human CaSR F42S mutant (Homo sapiens, UniProt P41180, F42S); experiment: Calcium mobilization assay, CaSR F42S mutant; format: cell-based; settings: for Response in calcium mobilization assay: in words
T1 construct: expressed in transfected cells; host or cells: PEAKrapid cells (ATCC), pcDNA 3.1, transient transfection
T1 sequence (P41180 20-1078 F42S): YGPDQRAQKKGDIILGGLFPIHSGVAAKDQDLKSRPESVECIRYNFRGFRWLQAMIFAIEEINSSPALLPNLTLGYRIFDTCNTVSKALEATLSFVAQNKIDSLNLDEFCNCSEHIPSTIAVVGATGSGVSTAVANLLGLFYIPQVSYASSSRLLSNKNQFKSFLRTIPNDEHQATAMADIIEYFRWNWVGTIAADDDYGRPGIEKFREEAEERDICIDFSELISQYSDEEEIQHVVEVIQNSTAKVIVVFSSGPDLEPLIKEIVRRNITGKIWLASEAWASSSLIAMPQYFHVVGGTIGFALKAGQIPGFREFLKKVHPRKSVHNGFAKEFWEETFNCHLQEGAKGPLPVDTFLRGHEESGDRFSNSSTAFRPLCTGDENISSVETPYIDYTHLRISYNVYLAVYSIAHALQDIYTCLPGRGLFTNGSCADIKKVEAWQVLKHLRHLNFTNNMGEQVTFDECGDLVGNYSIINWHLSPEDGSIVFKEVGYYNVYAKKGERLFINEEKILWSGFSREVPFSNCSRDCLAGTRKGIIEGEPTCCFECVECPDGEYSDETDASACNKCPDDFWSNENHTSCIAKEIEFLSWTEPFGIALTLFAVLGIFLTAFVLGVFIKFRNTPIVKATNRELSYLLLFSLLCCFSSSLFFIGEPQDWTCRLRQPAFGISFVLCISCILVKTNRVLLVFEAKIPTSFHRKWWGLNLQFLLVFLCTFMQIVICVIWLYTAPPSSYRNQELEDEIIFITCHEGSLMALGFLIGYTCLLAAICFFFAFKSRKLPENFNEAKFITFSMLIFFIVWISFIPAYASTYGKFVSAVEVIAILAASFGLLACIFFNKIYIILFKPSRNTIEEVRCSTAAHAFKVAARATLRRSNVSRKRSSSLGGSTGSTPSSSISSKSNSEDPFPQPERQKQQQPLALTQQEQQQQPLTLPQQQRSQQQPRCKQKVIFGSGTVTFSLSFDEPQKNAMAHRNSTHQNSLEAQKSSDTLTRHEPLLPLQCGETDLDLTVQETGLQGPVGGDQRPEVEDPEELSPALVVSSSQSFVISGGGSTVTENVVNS
Protocol: The CaSR receptor responsiveness was assessed by using PEAK^rapid cells (ATCC, Manassas, VA, USA) transiently transfected with the receptor DNA by the method reported by Kitajima et al.[6]. Briefly, human CaSR or its mutant cDNA with a signal sequence (MAFYSCCWVLLALTWHTSA) followed by FLAG-tag (DYKDDDDK) were inserted into pcDNA 3.1 expression vectors in Opti-MEM I medium (Thermo Fisher Scientific), mixed with FuGENE 6 (Roche), and poured onto PEAK^rapid cells grown at a submaximal concentration. After culturing for 24 h in 96-well plates, the cells were incubated with 5 µM Calcium-5 solution (Calcium-5 assay kit, Molecular Devices) for 45–60 min, and measurements were performed using a plate reader (FDSS/µCELL, Hamamatsu Photonics, Shizuoka, Japan) and its associated software. The activation of CaSR expressed in cells increases the intracellular Ca^2+ concentration, which is measured using a Ca^2+-sensitive dye. The binding of Ca^2+ to the Ca^2+-sensitive dye increases dye fluorescence, with excitation at 485 nm and emission at 525 nm. Test compounds were dissolved and administered in the assay buffer (146 mM NaCl, 1 mM MgSO4, 20 mM HEPES, 1 mM CaCl2, 2.5 mM probenecid, and 1.39 mM glucose, pH 7.4). Transiently transfected cells were challenged with compounds and compared with the vehicle alone and/or mock-transfected cells. The concentration dependence of the fluorescence intensity (influx of Ca^2+) was analyzed using the plate reader at 1 s intervals for 180 s. For the dose–response curve calculations, peak fluorescence responses after the addition of compounds were corrected for, normalized to the background fluorescence (ΔF/F = –F − F0)/F0), and baseline noise was subtracted. Dose–response curves were calculated by non-linear regression using GraphPad PRISM 8.0.

[2] = test system: CaSR; design: method as in PMID 19892707, PMID 27477658; settings: screening of dipeptides and tripeptides, previous work; cited from earlier work

CC(C)[C@H](NC(=O)CC[C@H](N)C(=O)O)C(=O)O [γ-EV, γ-glutamyl-valine]
Response in calcium mobilization assay [1]: no response

N[C@@H](Cc1ccc(O)cc1)C(=O)O [L-Tyr, L-tyrosine]
Response in calcium mobilization assay [1]: no response

CC(C)C(NC(=O)CCC(N)C(=O)O)C(=O)NCC(=O)O (stereo not drawn) [γ-EVG, γ-glutamyl-valyl-glycine] (γGlu-Val-Gly-OH; configuration not given here)
CaSR activation potency [2]: most potent activity among those tested

[Ca+2].[Cl-].[Cl-] [CaCl2]
Emax (% of wild-type values) [1]: 87.0 % of WT
EC50 ([1]; mean ± s.e.m., n = 3): 6.6 ± 0.3 mM
